Test results published in patent publication US20250154220A1, “INSULIN ANALOGS FOR THE TREATMENT OF HUMAN METABOLIC DISORDER AND DISEASE” (Ambio, Inc., priority 2023, published 2025).
Entries after “also recorded” stand apart in the source; their conditions may differ.

Tests used:
Sprague-Dawley (SD) rats [1] = assay: c-peptide levels in non-fasted Sprague-Dawley rats after subcutaneous injection; type: in vivo; settings: 175 nmol-200 nmol s.c.; for duration of c-peptide level compared to rats injected with Degludec: over 120 hours
Method: (§1) Male Sprague-Dawley (SD) rats at the age of 8-10 weeks old were administered a dose of 175 nmol-200 nmol insulin analogs 1, 2, 3, 4, APi3545, APi3546, APi3547, and APi3549 through subcutaneous injection. Insulin Degludec was used as a positive control. A vehicle control consisted of glycerol (19.6 mg), metacresol (1.72 mg), phenol (1.50 mg), zinc acetate ([…]), and WFI to 1 mL.

Sprague-Dawley (SD) rats [2] = assay: Glucose levels in non-fasted Sprague-Dawley rats after subcutaneous injection; type: in vivo; settings: for duration of decrease in glucose levels compared to rats injected with Degludec: over 120 hours; for glucose area under the curve (AUC) values: FIG. 9 (0-96 hour) and FIG. 15 (0-72 hour)
Method: as §1

ICR mice [3] = assay: Biopotency in ICR mice against insulin reference standard, chapter <1211> of Chinese Pharmacopeia (blood glucose 40 min after injection); type: in vivo; settings: low and high dosing solutions 0.05 and 0.1 IU/mL, blood 40 minutes after administration, FIG. 7
Method: The biopotency of the eight insulin analogs was determined by comparison with the insulin reference standard following chapter <1211> of Chinese Pharmacopeia. In particular, the insulin analogs and insulin reference standard were prepared with either diluent 1 or diluent 2. Diluent 1 comprises 0.9% sodium chloride at a pH of 2.5 (adjusted with HCl) and 0.2% phenol. Diluent 2 comprises 0.9% sodium chloride at a pH of 2.5 (adjusted with HCl). The insulin reference standard (27.2 IU/mg) and the insulin analogs (calculated as 25 IU/mg) were prepared with diluent 1. In addition, low- and high-dosing solutions (0.05 IU/mL and 0.1 IU/mL, respectively) of insulin reference standard and test analogs were prepared with diluent 2. Following chapter <1211> of Chinese Pharmacopeia, ICR mice (25-28 g, 6 animals per group) were injected with 0.2-0.3 mL of low and high dosing solution of the eight insulin analogs and insulin standard. Low and high doses of insulin standard and insulin analogs were administered to the mice following parallel design/protocol. […] The glucose concentration of each blood sample was determined by the glucose oxidase-peroxidase method (Roche blood glucose test strips). […] FIG. 6 summarizes the relative biopotency of the insulin analogs by comparing the calculated biopotency and measured biopotency.

[4] = Body weight of non-fasted Sprague-Dawley rats after subcutaneous injection; type: in vivo; settings: SD rats, over 120 hours, FIG. 13 and FIG. 16
Method: as §1

[5] = Body weight of db/db mice measured daily for 3 days after single subcutaneous dose; type: in vivo; settings: Day 1-3, 1.5 IU/mg Degludec, all dose levels of Analog #1, FIGS. 3A-3B
Method: (§2) Accordingly, the ability of insulin analog 1 (FIG. 1A) to control the glucose profile in a db/db type II diabetes model was tested. As a control, wild type m/m mouse strain was included in the study. Mice were male, between ages 6-8 weeks, and the total group size was 8. The insulin analogs were delivered as a subcutaneous single dose. The dose volume was 5 mL/Kg ([…] per 25 g mouse). Mice were injected at the following dose levels: Degludec 1.5 IU/kg (model) and insulin analog #1 (FIG. 1A) at 0.04 mg/kg, 0.12 mg/kg, or 0.36 mg/kg. All insulin compounds (Degludec and analog #1) were diluted with 0.9% sodium chloride (vehicle, normal saline). Vehicle controls were comprised of 0.9% sodium chloride.
(§3) Blood collection for glucose plasma concentration measurements occurred at Oh (0-60 min before dosing), 0.5 h, 1 h, 2 h, 4 h, 6 h, 8 h, 10 h, 12 h, 18 h, 24 h, 30 h after the single dose. Moreover, the mouse body weight was measured daily for 3 days.

db/db mice = assay: Glucose profile after single subcutaneous dose in db/db type II diabetes mouse model; type: in vivo
Source text: Murine db/db murine strain is a well-accepted type II diabetes model that recapitulates most aspects of human type II diabetes. In particular, db/db mice carry mutations in the leptin receptor that lead to obesity, decreased insulin receptor sensitivity, and subsequent increased levels of blood glucose, decreased β-cell function, and elevated HBA1c levels. Like human Type II diabetes, the diabetic condition in db/db mice is progressive. Animals have near normal or slightly elevated plasma glucose (PG) and relatively normal β-cell function at 6 weeks of age. Fasting plasma glucose (FPG) levels gradually elevate over several weeks and β-cell function declines such that by about 16 weeks of age FPG is very high (>400 mg/dL) and j-cell function has entirely degenerated. The db/db mouse model may be used in an acute setting but is more typically used in a chronic setting to evaluate a test compound's cumulative action over several weeks of treatment. The variability is reasonably low such that good statistically significant effects are seen with validating compounds with group sizes of about 8 animals.
as §2, with “Mice were injected at the following dose levels: Degludec 1.5 IU/kg (model) and insulin analog #1 (FIG. 1A) at 0.04 mg/kg, 0.12 mg/kg, or 0.36 mg/kg.” left out
as §3

IGF-1R = molecular target: T1, IGF-1R (Homo sapiens, UniProt P08069); assay: IGF-1R activation in IGF-1R (Luc) HEK293 reporter cells; type: cell-based; settings: up to 4 μg/mL (1.6 μM) concentration
T1 construct: expressed in transfected cells; host or cells: IGF-1R (Luc) HEK293 reporter cells
Source text: Insulin-like growth factor (IGF-1R) is a tyrosine kinase type receptor that regulates cell growth and proliferation and can be activated by IGF-1, IGF-2, and insulin. […]

ICR mice [6] = settings: reference standard as labelled; cited from earlier work
[7] = SD rats, 175 nmol-200 nmol s.c.

T1 sequence (P08069 31-736 limits assumed): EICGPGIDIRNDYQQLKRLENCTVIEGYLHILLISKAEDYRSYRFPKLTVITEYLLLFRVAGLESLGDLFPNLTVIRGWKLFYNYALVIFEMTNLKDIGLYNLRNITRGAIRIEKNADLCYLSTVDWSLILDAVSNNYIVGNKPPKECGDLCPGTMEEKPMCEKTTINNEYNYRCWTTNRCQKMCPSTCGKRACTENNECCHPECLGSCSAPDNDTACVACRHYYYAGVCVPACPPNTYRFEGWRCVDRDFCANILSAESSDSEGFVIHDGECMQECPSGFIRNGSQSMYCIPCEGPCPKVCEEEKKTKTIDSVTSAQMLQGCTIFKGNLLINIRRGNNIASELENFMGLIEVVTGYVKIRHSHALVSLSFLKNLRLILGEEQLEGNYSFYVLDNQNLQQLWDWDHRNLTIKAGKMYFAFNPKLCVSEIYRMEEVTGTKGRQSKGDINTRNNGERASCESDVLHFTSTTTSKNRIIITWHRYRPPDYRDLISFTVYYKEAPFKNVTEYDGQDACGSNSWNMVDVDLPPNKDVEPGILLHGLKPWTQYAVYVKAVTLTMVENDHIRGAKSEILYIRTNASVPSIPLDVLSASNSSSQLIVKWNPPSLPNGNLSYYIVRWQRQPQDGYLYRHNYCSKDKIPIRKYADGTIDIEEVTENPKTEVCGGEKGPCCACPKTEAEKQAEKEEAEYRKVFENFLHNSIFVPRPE
T1 sequence (P08069 741-1367 limits assumed): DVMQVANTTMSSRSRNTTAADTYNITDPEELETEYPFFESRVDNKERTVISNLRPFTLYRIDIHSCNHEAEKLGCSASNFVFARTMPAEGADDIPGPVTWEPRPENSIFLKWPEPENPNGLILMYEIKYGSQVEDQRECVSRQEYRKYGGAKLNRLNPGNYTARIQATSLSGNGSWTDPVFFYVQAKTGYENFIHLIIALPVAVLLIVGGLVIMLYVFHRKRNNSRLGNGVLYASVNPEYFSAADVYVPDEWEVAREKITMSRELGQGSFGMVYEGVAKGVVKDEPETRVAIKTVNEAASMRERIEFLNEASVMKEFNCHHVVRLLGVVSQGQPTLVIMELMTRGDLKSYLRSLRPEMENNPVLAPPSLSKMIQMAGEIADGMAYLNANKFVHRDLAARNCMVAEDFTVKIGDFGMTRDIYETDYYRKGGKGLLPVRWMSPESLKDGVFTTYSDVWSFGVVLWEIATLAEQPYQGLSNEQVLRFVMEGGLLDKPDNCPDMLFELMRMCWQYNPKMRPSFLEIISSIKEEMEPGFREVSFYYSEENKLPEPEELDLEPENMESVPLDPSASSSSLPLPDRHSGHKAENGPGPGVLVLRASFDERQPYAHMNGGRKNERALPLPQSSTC

Substance	duration of c-peptide level compared to rats injected with Degludec (Sprague-Dawley (SD) rats [1])	duration of decrease in glucose levels compared to rats injected with Degludec (Sprague-Dawley (SD) rats [2]; [7])	rate of body weight increase compared to rats injected with Degludec [4]	glucose area under the curve (AUC) values (Sprague-Dawley (SD) rats [2]; SD rats)	other results
APi3545: A-chain SEQ ID NO: 11 (A14 Aad), B-chain SEQ ID NO: 16 (B16 His(5-I), B25 Ala(4-thiazoyl)); structure FIG. 1H	maintained the level of c-peptide for a longer time	longer lasting decrease in glucose levels			time undetectable c-peptide level was maintained (Sprague-Dawley (SD) rats [1]): up to 72 hours; duration of action among insulin analogs tested (Sprague-Dawley (SD) rats [2]; structure-activity relationship (Example 5)): most long-acting insulin analog tested; glucose lowering effect / biopotency measured in ICR mice (ICR mice [3]): most active
APi3546: A-chain SEQ ID NO: 11 (A14 Aad), B-chain SEQ ID NO: 18 (B16 His(5-I), B25 3-Pal); structure FIG. 1I	maintained the level of c-peptide for a longer time	longer lasting decrease in glucose levels	lower rate of body weight increase		
Degludec [reference compound]					effect on animal body weight [5]: no significant effect
insulin analog 1: A-chain SEQ ID NO: 3 (A14 Gla), B-chain SEQ ID NO: 4 (B16 and B25 His(3-Me)); structure FIG. 1A	maintained the level of c-peptide for a longer time	longer lasting decrease in glucose levels	lower rate of body weight increase		glucose profile compared to db/db vehicle control (db/db mice; 0.12 mg/kg, s.c. single dose, 2, 4, 6 and 8 hr time points, FIG. 2): statistically significantly lower; response (glucose level decrease) versus dose (db/db mice; 0.36 mg/kg, 0.12 mg/kg and 0.04 mg/kg doses): dose proportional; glucose profile compared to db/db vehicle control (db/db mice; 0.36 mg/kg, entire time course starting from 2 hr time point): statistically lower; glucose profile compared to db/db vehicle control (db/db mice; 0.36 mg/kg, s.c. single dose, 2, 4, 6 and 8 hr time points, FIG. 2): statistically significantly lower; IGF-1R activation (IGF-1R; FIG. 19, listed as 1): none of insulin analogs 1, 2, 3, and 4 showed IGF-1R activation; also recorded: lack of IGF-1R activation; effect on animal body weight [5]: no significant effect
insulin analog 2: A-chain SEQ ID NO: 3 (A14 Gla), B-chain SEQ ID NO: 6 (B16 and B25 Pal, B28 Pro); structure FIG. 1B	maintained the level of c-peptide for a longer time		lower rate of body weight increase	follow the order of their specific activities	c-peptide lowering effect among analogs tested (Sprague-Dawley (SD) rats [1]): most profound and longest-lasting c-peptide lowering effect; duration of decrease in glucose levels compared to rats injected with Degludec (Sprague-Dawley (SD) rats [2]; SD rats, 175 nmol-200 nmol s.c., listed as 2): longer lasting decrease in glucose level; IGF-1R activation (IGF-1R; FIG. 19, listed as 2): none of insulin analogs 1, 2, 3, and 4 showed IGF-1R activation; also recorded: lack of IGF-1R activation; glucose lowering effect / biopotency measured in ICR mice (ICR mice [3]): most active
insulin analog 3: A-chain SEQ ID NO: 3 (A14 Gla), B-chain SEQ ID NO: 8 (B16 and B25 Pal, B28 Hyp); structure FIG. 1C	maintained the level of c-peptide for a longer time	longer lasting decrease in glucose levels		follow the order of their specific activities	magnitude of glucose lowering effect among analogs tested (Sprague-Dawley (SD) rats [2]; [7]): most profound glucose lowering effect; IGF-1R activation (IGF-1R; FIG. 19, listed as 3): none of insulin analogs 1, 2, 3, and 4 showed IGF-1R activation; also recorded: lack of IGF-1R activation
insulin analog 4: A-chain SEQ ID NO: 3 (A14 Gla), B-chain SEQ ID NO: 10 (B16 and B25 Pal, B28 Pip); structure FIG. 1D	maintained the level of c-peptide for a longer time	longer lasting decrease in glucose levels	lower rate of body weight increase	follow the order of their specific activities	IGF-1R activation (IGF-1R; FIG. 19, listed as 4): none of insulin analogs 1, 2, 3, and 4 showed IGF-1R activation; also recorded: lack of IGF-1R activation
insulin reference standard: insulin reference standard (27.2 IU/mg) of chapter <1211> of Chinese Pharmacopeia biopotency test					potency of insulin reference standard (ICR mice [6]): 27.2 IU/mg
